Assays:
Plasmodium falciparum = test: microbe, parasite or virus in culture; conditions: W2
Description: Antiplasmodial activity against Plasmodium falciparum W2 infected in human erythrocytes

[1] = Octanol-water partition coefficient, log D of the compound at pH 7.4; type: physicochemical
Vero [2] = test: Cytotoxicity against african green monkey Vero cells at 6.25 uM after 3 days; type: cell-based; conditions: chlorocebus sabaeus, 72 h
Trypanosoma cruzi = test: Antitrypanosomal activity against Trypanosoma cruzi Tulahuen 2 infected in african green monkey Vero cells expressing red fluorescent protein after 3 days by fluorescence analysis; type: functional, organism-based; conditions: Tulahuen 2, Vero, 72 h
Vero [3] = test: Cytotoxicity against african green monkey Vero cells at 25 uM after 3 days; type: cell-based; conditions: chlorocebus sabaeus, 72 h

| Structure (SMILES) | IC50 (Plasmodium falciparum) [nM] | logD [1] | Activity (Vero [2]) | IC50 (Trypanosoma cruzi) [nM] | Activity (Vero [3]) |
| --- | --- | --- | --- | --- | --- |
| O=C1c2ccccc2C(=O)N1CCCCCCCCCC[P+](c1ccccc1)(c1ccccc1)c1ccccc1 | 173 | 1.67 | – | – | – |
| O=C1C=C(CCCCCCCCCC[P+](c2ccc(F)cc2)(c2ccc(F)cc2)c2ccc(F)cc2)C(=O)c2ccccc21 | 846 | 1.66 | – | – | – |
| O=C1C=C(CCCCCCCCCC[P+](c2ccccc2)(c2ccccc2)c2ccccc2)C(=O)c2ccccc21 | 259 | 4.08 | – | – | – |
| O=C1C=C(CCCCC[P+](c2ccccc2)(c2ccccc2)c2ccccc2)C(=O)c2ccccc21 | 157 | 1 | – | – | – |
| CC1=C(CCCCCCCCCC[P+](c2ccccc2C)(c2ccccc2C)c2ccccc2C)C(=O)c2ccccc2C1=O | 143 | 3.58 | – | – | – |
| O=C1C=C(NCCCCCCCCCC[P+](c2ccccc2)(c2ccccc2)c2ccccc2)C(=O)c2ccccc21 | 114 | 3.6 | Toxic | 1600 | Toxic |
| CC1=C(CCCCC[P+](C)(C)C)C(=O)c2ccccc2C1=O | 956 | 0.21 | – | – | – |
| CC1=C(CCCCCCCCCC[P+](C)(C)C)C(=O)c2ccccc2C1=O | 404 | 1.95 | – | – | – |
| C[C@@H]1CC[C@H]2[C@@H](C)C(=O)O[C@@H]3O[C@@]4(C)CC[C@@H]1[C@]32OO4 [ARTEMISININ] | 7.31 | – | – | – | – |
| Cc1ccccc1[P+](CCCCCCCCCCN1C(=O)c2ccccc2C1=O)(c1ccccc1C)c1ccccc1C | 143 | -0.75 | – | – | – |
| O=C1c2ccccc2C(=O)N1CCCCCC[P+](c1ccccc1)(c1ccccc1)c1ccccc1 | 1020 | 1.14 | – | – | – |
| O=C1C=C(NCC[P+](c2ccccc2)(c2ccccc2)c2ccccc2)C(=O)c2ccccc21 | 520 | -1.08 | – | – | – |
| CCCC[P+](CCCC)(CCCC)CCCCCCCCCCN1C(=O)c2ccccc2C1=O | 194 | 3.68 | – | – | – |
| CCCCCCCCCCC1=CC(=O)c2ccccc2C1=O | > 10000 | – | Non-toxic | 9300 | Non-toxic |
| O=C1C=C(CCCCCCCCCC[P+](Cc2ccccc2)(Cc2ccccc2)Cc2ccccc2)C(=O)c2ccccc21 | 1300 | 5.32 | Non-toxic | 3000 | Non-toxic |
| CC1=C(CCCCCCCCCC[P+](c2ccccc2)(c2ccccc2)c2ccccc2)C(=O)c2ccccc2C1=O | 143 | 3.97 | Toxic | 1600 | Toxic |
| O=C1c2ccccc2C(=O)N1CCCCCCCCCC[P+](Cc1ccccc1)(Cc1ccccc1)Cc1ccccc1 | 288 | 1.37 | – | – | – |
| CCCC[P+](CCCC)(CCCC)CCCCCCCCCCC1=C(C)C(=O)c2ccccc2C1=O | 156 | 5.1 | Non-toxic | 4000 | Toxic |
| O=C1C=C(NCCCCCCCCCC[P+](c2ccc(F)cc2)(c2ccc(F)cc2)c2ccc(F)cc2)C(=O)c2ccccc21 | 292 | 1.67 | – | – | – |
| CC1=C(CCCC[P+](c2ccccc2)(c2ccccc2)c2ccccc2)C(=O)c2ccccc2C1=O | 18.7 | 1.91 | Non-toxic | 2700 | Non-toxic |

| Structure (SMILES) | IC50 (Plasmodium falciparum) [nM] | logD [1] | Activity (Vero [2]) | IC50 (Trypanosoma cruzi) [nM] | Activity (Vero [3]) |
| --- | --- | --- | --- | --- | --- |
| O=C1C(O)=C([C@H]2CC[C@H](c3ccc(Cl)cc3)CC2)C(=O)c2ccccc21 [ATOVAQUONE] | 0.28 | – | – | – | – |
| O=C1c2ccccc2C(=O)N1CCCCCCCCCC[P+](C1CCCCC1)(C1CCCCC1)C1CCCCC1 | 141 | 4.5 | – | – | – |
| CC1=C(CCCCC[P+](c2ccccc2)(c2ccccc2)c2ccccc2)C(=O)c2ccccc2C1=O | 48.3 | 2.15 | Non-toxic | 5400 | Toxic |
| O=C1C=C(NCCCCCCCCCC[P+](C2CCCCC2)(C2CCCCC2)C2CCCCC2)C(=O)c2ccccc21 | 94.4 | 3.41 | – | – | – |
| CCCCCCCCCC[P+](c1ccccc1)(c1ccccc1)c1ccccc1 [DECYLTRIPHENYLPHOSPHONIUM] | 142 | – | – | – | – |
| CC1=C(C[P+](c2ccccc2)(c2ccccc2)c2ccccc2)C(=O)c2ccccc2C1=O | 543 | 1.89 | – | – | – |
| CC1=C(CCCCCCCCCC[P+](C2CCCCC2)(C2CCCCC2)C2CCCCC2)C(=O)c2ccccc2C1=O | 134 | 3.64 | Non-toxic | 2400 | Toxic |
| CCCC[P+](c1ccccc1)(c1ccccc1)c1ccccc1 [BUTYLTRIPHENYLPHOSPHONIUM] | 3500 | – | – | – | – |
| CCCCCCCCCNC1=CC(=O)c2ccccc2C1=O | > 10000 | – | Non-toxic | 17300 | Non-toxic |
| O=C1c2ccccc2C(=O)N1CCCC[P+](c1ccccc1)(c1ccccc1)c1ccccc1 | 3500 | 0.01 | – | – | – |
| O=C1c2ccccc2C(=O)N1CCCCCCCCCC[P+](c1ccc(F)cc1)(c1ccc(F)cc1)c1ccc(F)cc1 | 346 | 2.13 | – | – | – |
| COc1ccc([P+](CCCCCCCCCCC2=C(C)C(=O)c3ccccc3C2=O)(c2ccc(OC)cc2)c2ccc(OC)cc2)cc1 | 131 | 3.52 | – | – | – |
| CCCCCCCCCCN1C(=O)c2ccccc2C1=O | > 10000 | – | – | – | – |
| COc1ccc([P+](CCCCCCCCCCNC2=CC(=O)c3ccccc3C2=O)(c2ccc(OC)cc2)c2ccc(OC)cc2)cc1 | 134 | 4.37 | – | – | – |
| O=C(Cn1ccnc1[N+](=O)[O-])NCc1ccccc1 [BENZNIDAZOLE] | – | – | Non-toxic | – | Non-toxic |
| O=C1C=C(NCCCCCCCCCC[P+](Cc2ccccc2)(Cc2ccccc2)Cc2ccccc2)C(=O)c2ccccc21 | 215 | 2.8 | – | – | – |
| CC1=C(CCCCCCCCCC[P+](Cc2ccccc2)(Cc2ccccc2)Cc2ccccc2)C(=O)c2ccccc2C1=O | 212 | 6.64 | Non-toxic | 3700 | Toxic |
| COc1ccc([P+](CCCCCCCCCCN2C(=O)c3ccccc3C2=O)(c2ccc(OC)cc2)c2ccc(OC)cc2)cc1 | 134 | 3.19 | – | – | – |
| C[P+](C)(C)CCCCCCCCCCN1C(=O)c2ccccc2C1=O | > 10000 | -0.08 | – | – | – |

From ChEMBL document CHEMBL2016476, “Phosphonium lipocations as antiparasitic agents” (Bioorg Med Chem Lett, 2012)
